Experimental data: patent US11833160B2, “Ursodeoxycholic acid derivatives as HDAC inhibitors for the treatment of polycystic diseases” (UNIVERSIDAD DEL PAIS VASCO/EUSKAL HERRIKO UNIBERTSITATEA, priority 2017, dated 2023)

Experiments:
human HDAC11 = target: T1, human HDAC11 (Homo sapiens, UniProt Q96DB2); test: HDAC11 enzymatic activity assay (fluorogenic peptide); format: biochemical; settings: 10-dose, 3-fold serial dilution, triplicate
T1 construct: GST (N); purchased BioMol SE-560; host or cells: baculovirus expression system
T1 sequence (Q96DB2 1-347): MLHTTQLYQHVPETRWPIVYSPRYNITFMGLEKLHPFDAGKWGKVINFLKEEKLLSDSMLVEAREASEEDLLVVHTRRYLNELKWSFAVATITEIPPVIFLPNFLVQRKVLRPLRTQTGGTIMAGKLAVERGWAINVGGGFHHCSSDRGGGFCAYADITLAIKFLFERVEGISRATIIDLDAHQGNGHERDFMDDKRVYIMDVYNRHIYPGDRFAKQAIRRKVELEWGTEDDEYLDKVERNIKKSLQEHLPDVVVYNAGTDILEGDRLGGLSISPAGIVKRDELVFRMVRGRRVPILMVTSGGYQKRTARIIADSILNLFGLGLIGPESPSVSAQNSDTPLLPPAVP
Experimental: (§1) Peptide substrates: all HDAC assays were performed using acetylated peptide substrates labeled with 7-amino-4-methylcoumarin (AMC): • Substrate for isoforms HDAC1, 2, 3, 6, 10, 11, and HeLa nuclear extract assays: acetylated fluorogenic peptide from p53 residues 379-382 (RHKKAc). • Substrate for isoforms HDAC4, 5, 7, 9: fluorogenic Boc-L-Lys (s-trifluoroacetyl)-AMC. • Substrate for HDAC8 assays: acetylated fluorogenic peptide from p53 residues 379-382 (RHKAcKAc).
(§2) 50 μl of peptide substrate (see “peptide substrates” section above) and an optimal concentration of the corresponding enzyme (see “enzymes” section above) in the assay buffer at a final DMSO concentration of 1% were incubated in the presence of gradient concentrations of inhibitors (10-dose IC50 mode with 3-fold serial dilution) at 30° C. for 2 hours. The reactions were carried out in a 96-well microplate for fluorometry in a 50 μl reaction volume. After the deacetylation reaction, Fluor-de-Lys-Developer (BioMol Cat. #KI-105) was added to each well to digest the deacetylated substrate, thereby producing the fluorescent signal. The reaction was carried out for 45 minutes at 30° C. with 5% CO2; the fluorescent signal was then measured using an excitation wavelength of 360 nm and an emission wavelength of 460 nm in a microplate-reading fluorometer (GeminiXS, Molecular Devices, Sunnyvale, CA). […]

human HDAC7 = target: T2, human HDAC7 (Homo sapiens, UniProt Q8WUI4); test: HDAC7 enzymatic activity assay (fluorogenic peptide); format: biochemical; settings: 10-dose, 3-fold serial dilution, triplicate
T2 construct: amino acids 518 end with GST N-terminal tag, MW=78 kDa; GST (N); purchased BioMol, Hamburg, Germany; host or cells: baculovirus expression system
T2 sequence (Q8WUI4 479-952 limits assumed): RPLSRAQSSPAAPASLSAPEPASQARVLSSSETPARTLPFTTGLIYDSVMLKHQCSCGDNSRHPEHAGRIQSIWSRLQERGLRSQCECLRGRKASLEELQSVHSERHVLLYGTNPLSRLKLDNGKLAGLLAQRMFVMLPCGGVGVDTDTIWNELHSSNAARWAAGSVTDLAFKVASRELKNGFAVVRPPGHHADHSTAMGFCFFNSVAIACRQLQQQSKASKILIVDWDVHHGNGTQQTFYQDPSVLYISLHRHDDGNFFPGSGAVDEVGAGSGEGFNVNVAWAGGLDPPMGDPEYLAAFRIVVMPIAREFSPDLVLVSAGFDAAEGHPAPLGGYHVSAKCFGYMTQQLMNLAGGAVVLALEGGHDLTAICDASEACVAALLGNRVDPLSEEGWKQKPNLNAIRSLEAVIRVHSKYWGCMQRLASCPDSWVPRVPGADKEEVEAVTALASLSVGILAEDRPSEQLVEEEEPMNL
Experimental: as §1
(§3) 50 μl of peptide substrate (see “peptide substrates” section above) and an optimal concentration of the corresponding enzyme (see “enzymes” section above) in the assay buffer at a final DMSO concentration of 1% were incubated in the presence of gradient concentrations of inhibitors (10-dose IC50 mode with 3-fold serial dilution) at 30° C. for 2 hours. The reactions were carried out in a 96-well microplate for fluorometry in a 50 μl reaction volume. After the deacetylation reaction, Fluor-de-Lys-Developer (BioMol Cat. #KI-105) was added to each well to digest the deacetylated substrate, thereby producing the fluorescent signal. The reaction was carried out for 45 minutes at 30° C. with 5% CO2; the fluorescent signal was then measured using an excitation wavelength of 360 nm and an emission wavelength of 460 nm in a microplate-reading fluorometer (GeminiXS, Molecular Devices, Sunnyvale, CA). A curve of deacetylated standard (Biomol, Cat. #KI-142; made from 100 μM with 1:2 dilution and 10 doses, 6 μl) allowed the conversion of the fluorescent signal into micromoles of deacetylated product. All experiments were performed in triplicate. The IC50s were calculated by fitting the experimental data to dose-response curve. DMSO was used as negative control; Trichostatin A (Biomol Cat. #GR-309) was used as positive control inhibitor.
(§4) Enzymatic activity assays were carried out in 11 HDAC enzymes, including HDAC6.

human HDAC10 = target: T3, human HDAC10 (Homo sapiens, UniProt Q969S8); test: HDAC10 enzymatic activity assay (fluorogenic peptide); format: biochemical; settings: 10-dose, 3-fold serial dilution, triplicate
T3 sequence (Q969S8 1-631): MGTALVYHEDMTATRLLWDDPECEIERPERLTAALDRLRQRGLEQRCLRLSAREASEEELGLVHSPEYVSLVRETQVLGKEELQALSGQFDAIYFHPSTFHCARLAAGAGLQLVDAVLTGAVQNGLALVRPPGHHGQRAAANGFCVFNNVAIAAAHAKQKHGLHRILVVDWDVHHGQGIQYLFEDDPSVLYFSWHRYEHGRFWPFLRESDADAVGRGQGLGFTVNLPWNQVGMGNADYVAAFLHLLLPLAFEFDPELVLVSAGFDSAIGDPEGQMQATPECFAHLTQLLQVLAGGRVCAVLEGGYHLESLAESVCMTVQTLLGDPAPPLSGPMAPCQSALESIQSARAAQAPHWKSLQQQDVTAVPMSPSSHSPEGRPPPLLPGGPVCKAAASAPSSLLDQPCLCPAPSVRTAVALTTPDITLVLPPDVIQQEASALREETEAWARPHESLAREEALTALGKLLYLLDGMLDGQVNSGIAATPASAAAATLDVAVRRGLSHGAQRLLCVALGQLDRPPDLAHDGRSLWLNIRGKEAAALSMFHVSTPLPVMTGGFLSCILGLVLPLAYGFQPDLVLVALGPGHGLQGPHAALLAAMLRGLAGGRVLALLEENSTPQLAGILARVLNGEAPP
Experimental: as §1, §2

human HDAC9 = human HDAC9 (Homo sapiens, UniProt Q9UKV0); test: HDAC9 enzymatic activity assay (fluorogenic peptide); format: biochemical; settings: 10-dose, 3-fold serial dilution, triplicate
Sequence of human HDAC9 (Q9UKV0 604-1066 isoform Q9UKV0-5): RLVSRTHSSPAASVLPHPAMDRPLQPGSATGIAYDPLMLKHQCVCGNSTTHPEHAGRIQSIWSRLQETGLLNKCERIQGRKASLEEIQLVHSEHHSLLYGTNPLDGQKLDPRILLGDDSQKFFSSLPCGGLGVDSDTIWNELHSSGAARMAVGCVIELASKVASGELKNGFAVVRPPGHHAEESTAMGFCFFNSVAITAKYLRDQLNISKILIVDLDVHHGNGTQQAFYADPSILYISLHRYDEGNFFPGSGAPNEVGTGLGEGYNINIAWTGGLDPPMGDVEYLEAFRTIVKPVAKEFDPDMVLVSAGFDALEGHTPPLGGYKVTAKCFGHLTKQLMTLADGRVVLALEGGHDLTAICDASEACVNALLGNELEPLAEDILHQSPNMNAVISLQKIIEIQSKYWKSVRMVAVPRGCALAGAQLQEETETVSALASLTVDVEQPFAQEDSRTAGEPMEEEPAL
Experimental: as §1, §2

human HDAC8 = target: T4, human HDAC8 (Homo sapiens, UniProt Q9BY41); test: HDAC8 enzymatic activity assay (fluorogenic peptide); format: biochemical; settings: 10-dose, 3-fold serial dilution, triplicate
T4 construct: purchased BioMol SE-145; host or cells: E. coli
T4 sequence (Q9BY41 1-377): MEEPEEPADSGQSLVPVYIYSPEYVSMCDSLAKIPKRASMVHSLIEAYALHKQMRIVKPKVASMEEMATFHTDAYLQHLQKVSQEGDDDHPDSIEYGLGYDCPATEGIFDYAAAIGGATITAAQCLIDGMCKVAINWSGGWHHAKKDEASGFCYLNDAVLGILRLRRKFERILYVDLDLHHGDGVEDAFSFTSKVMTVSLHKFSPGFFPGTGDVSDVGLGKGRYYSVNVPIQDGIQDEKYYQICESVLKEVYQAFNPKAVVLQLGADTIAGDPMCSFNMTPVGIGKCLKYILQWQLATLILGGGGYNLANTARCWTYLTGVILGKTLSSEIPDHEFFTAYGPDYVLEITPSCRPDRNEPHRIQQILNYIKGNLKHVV
Experimental: as §1, §3, §4

HDAC enzymes = test: Enzymatic activity assays in 11 HDAC enzymes (statements on the panel); format: biochemical, human; settings: HDAC enzymes other than HDAC6
Experimental: as §1, §3, §4

In the case of `C[C@H](CCC(=O)NCc1ccc(C(=O)NO)cc1)[C@H]1CC[C@H]2[C@@H]3[C@@H](O)C[C@@H]4C[C@H](O)CC[C@]4(C)[C@H]3CC[C@]12C` [Compound Ia], the IC50 (human HDAC11) is reported as 2.33 µM, the IC50 (human HDAC7) is reported as 7.47 µM and the IC50 (human HDAC10) is reported as 24.5 µM. The IC50 (human HDAC9) was 13.4 µM, the IC50 (human HDAC8) was 0.894 µM and the “inhibitory capacity with respect to the rest of the HDAC enzymes” value (HDAC enzymes) was “micromolar range”.
Work on `C[C@H](CCC(=O)NCC(=O)NCc1ccc(C(=O)NO)cc1)[C@H]1CC[C@H]2[C@@H]3[C@@H](O)C[C@@H]4C[C@H](O)CC[C@]4(C)[C@H]3CC[C@]12C` [Ib, 4-((2-((R)-4 ((3R,5S,7S,8R,9S,10S,13R,14S,17R)-3,7-dihydroxy-10,13-dimethylhexadecahydro-1H-cyclopenta[a]phenanthren-17-yl)pentanamide)acetamido)methyl)-N-hydroxybenzamide] yielded an IC50 (human HDAC11) of 2.56 µM, an IC50 (human HDAC7) of 17.6 µM and an IC50 (human HDAC10) of 21.8 µM. For the same molecule, the IC50 (human HDAC9) was 11.6 µM, the IC50 (human HDAC8) was 0.615 µM and the “inhibitory capacity with respect to the rest of the HDAC enzymes” value (HDAC enzymes) was “micromolar range”.
